Values quoted from earlier work as cited in patent US20040216174A1, “Screening assays for targets and drugs useful in treatment and prevention of lipid metabolism disorders” (priority 2003, published 2004).

Tested on: C. elegans
Conditions: treatment with antioxidant

With vitamin E as the substance, how does the “effect on germline development” value read?
Its value is “slows down germline development”.
